{"source": "EPA's ToxValDB 9.5", "key": {"Monkey [1]": {"test_system": "Monkey", "conditions": "chronic, oral"}, "Peromyscus polionotus": {"test_system": "Peromyscus polionotus", "conditions": "oral"}, "Neovison sp.": {"test_system": "Neovison sp.", "conditions": "repeat dose other; oral; Mink"}, "Phasianus colchicus": {"test_system": "Phasianus colchicus", "conditions": "oral"}, "Monkey [2]": {"test_system": "Monkey", "conditions": "chronic, oral", "remark": "listed apart in the source"}, "Homo sapiens [3]": {"test_system": "Homo sapiens", "conditions": "clinical, oral"}, "Gallus sp.": {"test_system": "Gallus sp.", "conditions": "repeat dose other; oral"}, "Rattus norvegicus [4]": {"test_system": "Rattus norvegicus", "conditions": "M/F"}, "Rattus norvegicus [5]": {"test_system": "Rattus norvegicus", "assay": "FEL; higher = less toxic", "conditions": "M/F"}, "Rattus norvegicus [6]": {"test_system": "Rattus norvegicus", "conditions": "oral; for NOEL: subchronic, gavage, Fischer 344, Deaths + Body Weight Changes: decrease + Hematology: Hct increase, RBC increase, WBC increase, Hgb increase, Ret increase, Nucleated …"}, "Rattus norvegicus [7]": {"test_system": "Rattus norvegicus"}, "Homo sapiens [8]": {"test_system": "Homo sapiens", "conditions": "clinical; for LOAEL: inhalation, M/F, respiratory"}, "Mus musculus [9]": {"test_system": "Mus musculus", "conditions": "chronic; duration: 25 months; oral; diet; M/F; Swiss; Histopathology in lungs"}, "Homo sapiens [10]": {"test_system": "Homo sapiens", "conditions": "clinical; oral; Cholinesterase: Decreased cholinesterase activity"}, "Rattus norvegicus [11]": {"test_system": "Rattus norvegicus", "conditions": "repeat dose other; oral"}, "Canidae [12]": {"test_system": "Canidae", "conditions": "subchronic; duration: 13 weeks; oral; capsule; M/F; Beagle; neurological"}, "Canidae [13]": {"test_system": "Canidae", "conditions": "repeat dose other; oral; Dog Other"}, "Rattus norvegicus [14]": {"test_system": "Rattus norvegicus", "conditions": "chronic; duration: 2 years; oral; drinking water; Gastrointestinal tract: Lesions"}, "Monkey [15]": {"test_system": "Monkey", "conditions": "chronic; duration: 26 weeks; inhalation; M; Cynomolgus; respiratory"}, "Rattus norvegicus [16]": {"test_system": "Rattus norvegicus", "conditions": "acute"}, "Oryctolagus sp. [17]": {"test_system": "Oryctolagus sp.", "assay": "LD0; higher = less toxic", "conditions": "acute; dermal; New Zealand"}, "Oryctolagus sp. [18]": {"test_system": "Oryctolagus sp.", "conditions": "developmental; oral; F; excessive loss of litters"}, "Oryctolagus sp. [19]": {"test_system": "Oryctolagus sp.", "conditions": "reproduction developmental; duration: 13 days; oral; gavage; Reproduction: Loss of litters"}, "Rattus norvegicus [20]": {"test_system": "Rattus norvegicus", "conditions": "uterotrophic, Active"}, "Mus musculus [21]": {"test_system": "Mus musculus", "conditions": "uterotrophic, Active"}, "[22]": {"conditions": "chronic, oral, gavage, reduced survival"}, "[23]": {"conditions": "chronic, duration: 2 years, oral, reduced weight gain, histopathology: rats"}, "[24]": {"conditions": "duration: 6 months, diet, M/F, increased thyroid weight"}}, "note": "Where “and” joins values, the source holds several entries; their conditions need not be identical. Identical values can stand only once.", "data": [{"smiles": "Clc1cccc(-c2ccc(Cl)c(Cl)c2Cl)c1Cl", "note": "[Aroclor 1254]", "values": [{"measurement": "LOAEL", "setting": "Monkey [1]; F, decreased antibody (IgG and IgM) response to sheep erythrocytes + Ocular exudate, inflamed and prominent Meibomian glands, distorted growth …", "result": 0.005, "unit": "mg/kg-day"}, {"measurement": "LOAEL", "setting": "Peromyscus polionotus", "result": 0.68, "unit": "mg/kg-day"}, {"measurement": "NOAEL", "setting": "Peromyscus polionotus", "result": 0.068, "unit": "mg/kg-day"}, {"measurement": "LOAEL", "setting": "Neovison sp.", "result": 0.69, "unit": "mg/kg-day"}, {"measurement": "NOAEL", "setting": "Neovison sp.", "result": 0.14, "unit": "mg/kg-day"}, {"measurement": "LOAEL", "setting": "Phasianus colchicus", "result": 1.8, "unit": "mg/kg-day"}, {"measurement": "NOAEL", "setting": "Phasianus colchicus", "result": 0.18, "unit": "mg/kg-day"}, {"measurement": "LOAEL", "setting": "Monkey [2]; duration: 5 years, capsule, Immune system: Toxicity", "result": 0.005, "unit": "mg/kg-day"}]}, {"smiles": "CC1(C)[C@@H](O[C@H]2O[C@H](C(=O)O)[C@@H](O)[C@H](O)[C@H]2O[C@@H]2O[C@H](C(=O)O)[C@@H](O)[C@H](O)[C@H]2O)CC[C@]2(C)[C@H]3C(=O)C=C4[C@@H]5C[C@@](C)(C(=O)O)CC[C@]5(C)CC[C@@]4(C)[C@]3(C)CC[C@@H]12", "note": "[Glycyrrhizin]", "values": [{"measurement": "NOAEL", "setting": "Homo sapiens [3]; duration: 8 weeks, capsule, F, Inhibition of the type-2 11b-hsd, with a consequent increase in concentrations of cortisol", "result": 2, "unit": "mg/kg-day"}]}, {"smiles": "Clc1cc2oc3cc(Cl)c(Cl)cc3c2cc1Cl", "note": "[2,3,7,8-Tetrachlorodibenzofuran]", "values": [{"measurement": "LOAEL", "setting": "Gallus sp.", "result": "1e-05", "unit": "mg/kg-day"}, {"measurement": "NOAEL", "setting": "Gallus sp.", "result": "1e-06", "unit": "mg/kg-day"}]}, {"smiles": "C=CC=O", "note": "[Acrolein]", "values": [{"measurement": "NOAEL", "setting": "Rattus norvegicus [4]; [22]", "result": 0.05, "unit": "mg/kg-day"}, {"measurement": "LOAEL", "setting": "Rattus norvegicus [4]; subchronic, inhalation, nasal lesions", "result": 0.9, "unit": "mg/m3"}, {"measurement": "FEL", "setting": "Rattus norvegicus [5]; [22]", "result": 0.5, "unit": "mg/kg-day"}, {"measurement": "NOEL", "setting": "Rattus norvegicus [6]; F", "result": "< 0.75", "unit": "mg/kg-day"}, {"measurement": "NOEL", "setting": "Rattus norvegicus [6]; M", "result": 1.25, "unit": "mg/kg-day"}, {"measurement": "LOAEL", "setting": "Rattus norvegicus [7]; subchronic, duration: 13 weeks, inhalation, M/F, respiratory", "result": 0.917, "unit": "mg/m3"}, {"measurement": "LOAEL", "setting": "Homo sapiens [8]; duration: 60 minutes", "result": 0.688, "unit": "mg/m3"}]}, {"smiles": "N#CC(c1ccc(Cl)cc1)c1c(Cl)cc(-n2ncc(=O)[nH]c2=O)cc1Cl", "note": "(stereo not given) [Diclazuril]", "values": [{"measurement": "LOEL", "setting": "Mus musculus [9]", "result": 11, "unit": "mg/kg-day"}, {"measurement": "NOEL", "setting": "Mus musculus [9]", "result": 3, "unit": "mg/kg-day"}]}, {"smiles": "CN(C)[C@@H]1C(=O)C(C(N)=O)=C(O)[C@@]2(O)C(=O)C3=C(O)c4c(O)cccc4[C@@](C)(O)[C@H]3[C@H](O)[C@@H]12", "note": "[Oxytetracycline]", "values": [{"measurement": "NOEL", "setting": "Homo sapiens [3]; Selection of resistant enterobacteriaceae", "result": 0.033, "unit": "mg/kg-day"}]}, {"smiles": "CCOP(=S)(OCC)Oc1ccc([N+](=O)[O-])cc1", "note": "[Parathion]", "values": [{"measurement": "NOAEL", "setting": "Homo sapiens [10]", "result": 0.064, "unit": "mg/kg-day"}, {"measurement": "NOAEL", "setting": "Rattus norvegicus [7]; subchronic, duration: 6 weeks, inhalation, whole body, M, Sprague-Dawley, neurological", "result": 0.01, "unit": "mg/m3"}, {"measurement": "NOAEL", "setting": "Homo sapiens [8]; duration: 30 days, oral, capsule, M, neurological", "result": 0.09, "unit": "mg/kg-day"}]}, {"smiles": "C=C1C(CCl)(CCl)C2(Cl)C(Cl)C(Cl)C1(Cl)C2(Cl)Cl", "note": "(stereo not given) [Toxaphene]", "values": [{"measurement": "NOAEL", "setting": "Rattus norvegicus [11]", "result": 8, "unit": "mg/kg-day"}, {"measurement": "NOAEL", "setting": "Canidae [12]", "result": 5, "unit": "mg/kg-day"}]}, {"smiles": "C=O", "note": "[Formaldehyde]", "values": [{"measurement": "LOAEL", "setting": "Rattus norvegicus [4]; [23]", "result": 82, "unit": "mg/kg-day"}, {"measurement": "NOAEL", "setting": "Rattus norvegicus [4]; [23]", "result": 15, "unit": "mg/kg-day"}, {"measurement": "NOAEL", "setting": "Canidae [13]", "result": 9.4, "unit": "mg/kg-day"}, {"measurement": "NOAEL", "setting": "Rattus norvegicus [14]", "result": 15, "unit": "mg/kg-day"}, {"measurement": "NOAEL", "setting": "Rattus norvegicus [6]; short-term, duration: 28 days, drinking water, M/F, Wistar, Clinical Observation: Yellowish discoloration of fur + Food Consumption: decrease + Water Consumption: decrease + Blood Chemistry: TP …", "result": 25, "unit": "mg/kg-day"}, {"measurement": "NOAEL", "setting": "Monkey [15]", "result": 1.2, "unit": "mg/m3"}, {"measurement": "NOAEL", "setting": "Rattus norvegicus [7]; chronic, duration: 2 years, oral, M/F, Wistar, gastrointestinal", "result": 15, "unit": "mg/kg-day"}, {"measurement": "NOAEL", "setting": "Rattus norvegicus [7]; short-term, duration: 4 weeks, oral, drinking water, M/F, Wistar, gastrointestinal", "result": 25, "unit": "mg/kg-day"}, {"measurement": "LOAEL", "setting": "Homo sapiens [8]; duration: 2 hours", "result": 0.491, "unit": "mg/m3"}]}, {"smiles": "S=C([S-])NCCNC(=S)[S-].[Mn+2]", "note": "[Maneb]", "values": [{"measurement": "LEL", "setting": "Monkey [1]; [24]", "result": 15, "unit": "mg/kg-day"}, {"measurement": "NOEL", "setting": "Monkey [1]; [24]", "result": 5, "unit": "mg/kg-day"}, {"measurement": "NOEL", "setting": "Monkey [2]; duration: 6 months, diet, Thyroid: Increased weight", "result": 5, "unit": "mg/kg-day"}]}, {"smiles": "CC12C=CC(C1)C1C(=O)OC(=O)C12", "note": "(stereo not given) [1,2,3,6-Tetrahydromethyl-3,6-methanophthalic anhydride]", "values": [{"measurement": "LD50", "setting": "Rattus norvegicus [16]; dermal", "result": "4920 mg/kg and ≥ 3670 mg/kg and ≤ 6590 mg/kg"}, {"measurement": "LD50", "setting": "Rattus norvegicus [16]; oral", "result": 914, "unit": "mg/kg"}, {"measurement": "LD50", "setting": "Rattus norvegicus [16]; oral, gavage, Sprague-Dawley", "result": "958 mg/kg and ≥ 856 mg/kg and ≤ 1080 mg/kg"}, {"measurement": "LD0", "setting": "Oryctolagus sp. [17]", "result": "> 2000", "unit": "mg/kg"}]}, {"smiles": "CCN(CC)CC", "note": "[Triethylamine]", "values": [{"measurement": "NOAEL", "setting": "Rattus norvegicus [4]; chronic, duration: 28 weeks, inhalation, no effects", "result": 1020, "unit": "mg/m3"}, {"measurement": "FEL", "setting": "Rattus norvegicus [5]; short-term, duration: 10 days, inhalation, inflammation of the nasal passage", "result": 4140, "unit": "mg/m3"}]}, {"smiles": "COc1ccc(C(c2ccc(OC)cc2)C(Cl)(Cl)Cl)cc1", "note": "[Methoxychlor]", "values": [{"measurement": "LEL", "setting": "Oryctolagus sp. [18]", "result": 35.5, "unit": "mg/kg-day"}, {"measurement": "NOEL", "setting": "Oryctolagus sp. [18]", "result": 5.01, "unit": "mg/kg-day"}, {"measurement": "LOAEL", "setting": "Rattus norvegicus [11]", "result": 8, "unit": "mg/kg-day"}, {"measurement": "NOAEL", "setting": "Rattus norvegicus [11]", "result": 4, "unit": "mg/kg-day"}, {"measurement": "NOEL", "setting": "Oryctolagus sp. [19]", "result": 5.01, "unit": "mg/kg-day"}, {"measurement": "LEL", "setting": "Rattus norvegicus [20]; duration: 1 days, injection, intraperitoneal", "result": "10 mg and 5 mg/day"}, {"measurement": "LEL", "setting": "Rattus norvegicus [20]; duration: 1 days, oral", "result": 125, "unit": "mg/kg-day"}, {"measurement": "LEL", "setting": "Rattus norvegicus [20]; duration: 4 days, injection, intraperitoneal", "result": 0.75, "unit": "mg/kg-day"}, {"measurement": "LEL", "setting": "Rattus norvegicus [20]; duration: 7 days, injection, subcutaneous", "result": 100, "unit": "mg/kg-day"}, {"measurement": "LEL", "setting": "Rattus norvegicus [20]; duration: 7 days, oral", "result": 50, "unit": "mg/kg-day"}, {"measurement": "LEL", "setting": "Rattus norvegicus [20]; duration: 42 days, oral, diet", "result": 500, "unit": "ppm"}, {"measurement": "LEL", "setting": "Rattus norvegicus [20]; duration: 98 days, oral, diet", "result": 1500, "unit": "ppm"}, {"measurement": "LEL", "setting": "Mus musculus [21]; duration: 3 days, oral", "result": 1, "unit": "mg/day"}, {"measurement": "LEL", "setting": "Mus musculus [21]; duration: 4 days, injection, subcutaneous", "result": 100, "unit": "mg/kg-day"}, {"measurement": "LEL", "setting": "Mus musculus [21]; duration: 5 days, injection, subcutaneous", "result": 10, "unit": "mg/kg-day"}, {"measurement": "LOAEL", "setting": "Rattus norvegicus [7]; reproduction developmental, duration: 364 days, oral, gavage, M/F, Sprague-Dawley, reproductive", "result": 5, "unit": "mg/kg-day"}]}]}
